Data on two compounds can be found in PMC10379611 (International Journal of Molecular Sciences, 2023).

Several values for one entry are separate records, joined by “and”; a condition that tells them apart may be missing. Equal entries are not always repeated.

One series has as its target T1, ENT2 (Homo sapiens, UniProt Q14542).
T1 construct: expressed in transfected cells; host or cells: MDCKII (lentiviral transduction)
T1 sequence (Q14542 1-456): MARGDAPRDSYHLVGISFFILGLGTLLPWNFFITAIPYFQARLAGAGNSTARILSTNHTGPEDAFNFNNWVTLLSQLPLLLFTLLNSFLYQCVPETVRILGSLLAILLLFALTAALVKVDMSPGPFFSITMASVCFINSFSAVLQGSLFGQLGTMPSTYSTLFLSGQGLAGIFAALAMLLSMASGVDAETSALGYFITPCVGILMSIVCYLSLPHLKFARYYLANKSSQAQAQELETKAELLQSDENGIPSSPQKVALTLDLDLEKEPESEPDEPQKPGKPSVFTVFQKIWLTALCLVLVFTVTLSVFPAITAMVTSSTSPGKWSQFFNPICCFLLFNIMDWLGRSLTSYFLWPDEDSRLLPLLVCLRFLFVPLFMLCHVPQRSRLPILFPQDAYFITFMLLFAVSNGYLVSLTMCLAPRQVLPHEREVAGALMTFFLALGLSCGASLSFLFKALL
In words: ENT2-mediated adenosine uptake in ENT2-MDCKII cells. The format is cell-based. On the procedure:
ENT and CNT transporter interactions were investigated in transporter-overexpressing cell lines. Madin-Darby Canine Kidney II (MDCKII) cell lines overexpressing the human uptake transporters CNT1, CNT2, ENT1, and ENT2 were generated via lentiviral transduction. Cell cultures were maintained in Dulbecco’s modified Eagle’s medium (DMEM) and 4500 mg/L of glucose supplemented with GlutaMax^TM, 10% v/v fetal bovine serum (FBS), 100 units/mL penicillin, and 100 µg/mL streptomycin (all from Gibco/ThermoFisher, Waltham, MA, USA) at 37 °C in 5% CO2 at 95% humidity. For uptake inhibition assays, transporter-expressing cells and mock-transduced control cells were seeded on 96-well tissue culture plates at a density of 1 × 10^5 cells/well. […] To determine the amounts of accumulated radiolabeled substrates, cell lysates mixed with a liquid scintillation cocktail were measured with a MicroBeta2 microplate counter (PerkinElmer, Singapore).
Transporter-specific accumulation of the probe substrate was calculated using the following formula: ACCSpec = ACCTRP − ACCMock, where ACCTRP is the accumulation of the probe in transporter-expressing cells and ACCMock is the accumulation of the probe in control cells. Relative transporter-specific accumulation values were calculated as percentages of the control value (with vehicle only).

The subject of the next series is OATP1B3. To be noted: read-out: IC50 for OATP1B3; cited from earlier work.
For series [1] the following is noted: cited from earlier work.
Another series concerns SARS-CoV-2. Further details: method as in PMID 34726479. To be noted: cell culture tests; cited from earlier work.

For the compound `CC(C)C(=O)OC[C@H]1O[C@@H](n2ccc(NO)nc2=O)[C@H](O)[C@@H]1O` [EIDD-2801, Molnupiravir], the “inhibition of adenosine uptake by ENT2” value at ENT2 is on record as “only mildly inhibited”.
In the case of `CC(C)(C)[C@H](NC(=O)C(F)(F)F)C(=O)N1C[C@H]2[C@@H]([C@H]1C(=O)N[C@H](C#N)C[C@@H]1CCNC1=O)C2(C)C` [Nirmatrelvir], the IC50 in the series on OATP1B3 is more than 100 µM. In series [1] (Paxlovid 300 mg Nirmatrelvir and 100 mg Ritonavir twice daily, listed as NIR), the plasma peak concentration result was “around 2 μg/mL and 4–5 μM”. Also, the observed plasma concentrations in series [1] (recommended clinical dose of Paxlovid) is 5 µM. Further, the “antiviral activity against SARS-CoV-2” value in the series on SARS-CoV-2 is recorded as “nanomolar range”.
